Measurements: ChEMBL document CHEMBL1143799, “Synthesis and primary cytotoxicity evaluation of new imidazo[2,1-b]thiazole derivatives” (2007)

Key:
Type in all cases: functional
[1] = system: MOLT-4; assay: Growth inhibition of human MOLT4 cells after 48 hrs by SRB protein assay; settings: MOLT-4, 48 h; for TGI: read-out: Log TGI (converted)
[2] = system: RPMI-8226; assay: Growth inhibition of human RPMI8226 cells after 48 hrs by SRB protein assay; settings: RPMI-8226, 48 h; for TGI: read-out: Log TGI (converted)
[3] = system: EKVX; assay: Growth inhibition of human EKVX cells after 48 hrs by SRB protein assay; settings: for TGI: read-out: Log TGI (converted)
[4] = system: HOP-62; assay: Growth inhibition of human HOP62 cells after 48 hrs by SRB protein assay; settings: HOP-62, 48 h; for TGI: read-out: Log TGI (converted)
[5] = system: HOP-92; assay: Growth inhibition of human HOP92 cells after 48 hrs by SRB protein assay; settings: HOP-92, 48 h; for TGI: read-out: Log TGI (converted)
[6] = system: NCI-H23; assay: Growth inhibition of human NCI-H23 cells after 48 hrs by SRB protein assay; settings: NCI-H23, 48 h; for TGI: read-out: Log TGI (converted)
[7] = system: NCI-H322M; assay: Growth inhibition of human NCI-H322M cells after 48 hrs by SRB protein assay; settings: for TGI: read-out: Log TGI (converted)
[8] = system: NCI-H460; assay: Growth inhibition of human NCI-H460 cells after 48 hrs by SRB protein assay; settings: NCI-H460, 48 h; for TGI: read-out: Log TGI (converted)
[9] = system: NCI-H522; assay: Growth inhibition of human NCI-H522 cells after 48 hrs by SRB protein assay; settings: NCI-H522, 48 h; for TGI: read-out: Log TGI (converted)
[10] = system: COLO 205; assay: Growth inhibition of human COLO205 cells after 48 hrs by SRB protein assay; settings: COLO 205, 48 h; for TGI: read-out: Log TGI (converted)
[11] = system: HCT-116; assay: Growth inhibition of human HCT116 cells after 48 hrs by SRB protein assay; settings: HCT-116, 48 h; for TGI: read-out: Log TGI (converted)
[12] = system: HCT-15; assay: Growth inhibition of human HCT15 cells after 48 hrs by SRB protein assay; settings: HCT-15, 48 h; for TGI: read-out: Log TGI (converted)
[13] = system: KM12; assay: Growth inhibition of human KM12 cells after 48 hrs by SRB protein assay; settings: KM12, 48 h; for TGI: read-out: Log TGI (converted)
[14] = system: SW-620; assay: Growth inhibition of human SW620 cells after 48 hrs by SRB protein assay; settings: SW-620, 48 h; for TGI: read-out: Log TGI (converted)
[15] = system: SF-268; assay: Growth inhibition of human SF268 cells after 48 hrs by SRB protein assay; settings: SF-268, 48 h; for TGI: read-out: Log TGI (converted)
[16] = system: SF-295; assay: Growth inhibition of human SF295 cells after 48 hrs by SRB protein assay; settings: SF-295, 48 h; for TGI: read-out: Log TGI (converted)
[17] = system: SF-539; assay: Growth inhibition of human SF539 cells after 48 hrs by SRB protein assay; settings: SF-539, 48 h; for TGI: read-out: Log TGI (converted)
[18] = system: SNB-19; assay: Growth inhibition of human SNB19 cells after 48 hrs by SRB protein assay; settings: SNB-19, 48 h; for TGI: read-out: Log TGI (converted)
[19] = system: SNB-75; assay: Growth inhibition of human SNB75 cells after 48 hrs by SRB protein assay; settings: SNB-75, 48 h; for TGI: read-out: Log TGI (converted)
[20] = system: U-251; assay: Growth inhibition human U251 of cells after 48 hrs by SRB protein assay; settings: U-251, 48 h; for TGI: read-out: Log TGI (converted)
[21] = system: LOX IMVI; assay: Growth inhibition of human LOX IMVI cells after 48 hrs by SRB protein assay; settings: for TGI: read-out: Log TGI (converted)
[22] = system: M14; assay: Growth inhibition of human M14 cells after 48 hrs by SRB protein assay; settings: M14, 48 h; for TGI: read-out: Log TGI (converted)
[23] = system: SK-MEL-2; assay: Growth inhibition of human SK-MEL-2 cells after 48 hrs by SRB protein assay; settings: SK-MEL-2, 48 h; for TGI: read-out: Log TGI (converted)
[24] = system: SK-MEL-28; assay: Growth inhibition of human SK-MEL-28 cells after 48 hrs by SRB protein assay; settings: SK-MEL-28, 48 h; for TGI: read-out: Log TGI (converted)
[25] = system: UACC-257; assay: Growth inhibition of human UACC257 cells after 48 hrs by SRB protein assay; settings: UACC-257, 48 h; for TGI: read-out: Log TGI (converted)
[26] = system: UACC-62; assay: Growth inhibition of human UACC62 cells after 48 hrs by SRB protein assay; settings: UACC-62, 48 h; for TGI: read-out: Log TGI (converted)
[27] = system: IGROV-1; assay: Growth inhibition of human IGROV1 cells after 48 hrs by SRB protein assay; settings: IGROV-1, 48 h; for TGI: read-out: Log TGI (converted)
[28] = system: OVCAR-3; assay: Growth inhibition of human OVCAR-3 cells after 48 hrs by SRB protein assay; settings: OVCAR-3, 48 h; for TGI: read-out: Log TGI (converted)
[29] = system: SK-OV-3; assay: Growth inhibition of human SK-OV-3 cells after 48 hrs by SRB protein assay; settings: SK-OV-3, 48 h; for TGI: read-out: Log TGI (converted)
[30] = Growth inhibition of human 786O cells after 48 hrs by SRB protein assay; settings: 786-0, 48 h; for TGI: read-out: Log TGI (converted)
[31] = system: ACHN; assay: Growth inhibition of human ACHN cells after 48 hrs by SRB protein assay; settings: for TGI: read-out: Log TGI (converted)
[32] = system: RXF 393; assay: Growth inhibition of human RXF393 cells after 48 hrs by SRB protein assay; settings: RXF 393, 48 h; for TGI: read-out: Log TGI (converted)
[33] = system: SN12C; assay: Growth inhibition of human SN12C cells after 48 hrs by SRB protein assay; settings: for TGI: read-out: Log TGI (converted)
[34] = system: UO-31; assay: Growth inhibition of human UO31 cells after 48 hrs by SRB protein assay; settings: UO-31, 48 h; for TGI: read-out: Log TGI (converted)
[35] = system: MCF7; assay: Growth inhibition of human MCF7 cells after 48 hrs by SRB protein assay; settings: MCF7, 48 h; for TGI: read-out: Log TGI (converted)
[36] = system: MDA-MB-231; assay: Growth inhibition of MDA-MB-231 cells after 48 hrs by SRB protein assay; settings: Homo sapiens, MDA-MB-231, 48 h; for TGI: read-out: Log TGI (converted)
[37] = system: Hs-578T; assay: Growth inhibition of human HS578T cells after 48 hrs by SRB protein assay; settings: for TGI: read-out: Log TGI (converted)
[38] = system: MDA-MB-435; assay: Growth inhibition of human MDA-MB-435 cells after 48 hrs by SRB protein assay; settings: MDA-MB-435, 48 h; for TGI: read-out: Log TGI (converted)
[39] = system: BT-549; assay: Growth inhibition of human BT549 cells after 48 hrs by SRB protein assay; settings: BT-549, 48 h; for TGI: read-out: Log TGI (converted)

COc1cccc(OC)c1/C=N/NC(=O)Cc1csc2nc(-c3ccc(Br)cc3)cn12
GI50 [1]: 3.47 µM
TGI [1]: 8.13 µM
GI50 [2]: 10.2 µM
TGI [2]: > 100 µM
GI50 [3]: 17 µM
TGI [3]: 57.5 µM
GI50 [4]: 13.2 µM
TGI [4]: 30.2 µM
GI50 [5]: 13.8 µM
TGI [5]: 35.5 µM
GI50 [6]: 19.5 µM
TGI [6]: 52.5 µM
GI50 [7]: 14.8 µM
TGI [7]: 61.7 µM
GI50 [8]: > 100 µM
TGI [8]: > 100 µM
GI50 [9]: 22.9 µM
TGI [9]: > 100 µM
GI50 [10]: 35.5 µM
TGI [10]: > 100 µM
GI50 [11]: 4.57 µM
TGI [11]: 15.8 µM
GI50 [12]: 7.41 µM
TGI [12]: 64.6 µM
GI50 [13]: 8.91 µM
TGI [13]: > 100 µM
GI50 [14]: 6.46 µM
TGI [14]: 49 µM
GI50 [15]: > 100 µM
TGI [15]: > 100 µM
GI50 [16]: 12.3 µM
TGI [16]: 34.7 µM
GI50 [17]: 11.2 µM
TGI [17]: 24.5 µM
GI50 [18]: 31.6 µM
TGI [18]: > 100 µM
GI50 [19]: 24 µM
TGI [19]: 66.1 µM
GI50 [20]: 13.8 µM
TGI [20]: 31.6 µM
GI50 [21]: 12.6 µM
TGI [21]: 47.9 µM
GI50 [22]: 15.1 µM
TGI [22]: 72.4 µM
GI50 [23]: 89.1 µM
TGI [23]: > 100 µM
GI50 [24]: 41.7 µM
TGI [24]: > 100 µM
GI50 [25]: 24 µM
TGI [25]: 97.7 µM
GI50 [26]: 12 µM
TGI [26]: 27.5 µM
GI50 [27]: 3.98 µM
TGI [27]: 26.9 µM
GI50 [28]: 15.8 µM
TGI [28]: 58.9 µM
GI50 [29]: 57.5 µM
TGI [29]: > 100 µM
GI50 [30]: 26.3 µM
TGI [30]: > 100 µM
GI50 [31]: 17 µM
TGI [31]: 34.7 µM
GI50 [32]: 19.1 µM
TGI [32]: 67.6 µM
GI50 [33]: 20.9 µM
TGI [33]: 49 µM
GI50 [34]: 60.3 µM
TGI [34]: > 100 µM
GI50 [35]: 29.5 µM
TGI [35]: > 100 µM
GI50 [36]: 16.2 µM
TGI [36]: 40.7 µM
GI50 [37]: 11.5 µM
TGI [37]: 45.7 µM
GI50 [38]: 3.98 µM
TGI [38]: 16.2 µM
GI50 [39]: 12.9 µM
TGI [39]: 33.9 µM

O=C(Cc1csc2nc(-c3ccc(Br)cc3)cn12)N/N=C/c1ccc(O)cc1
GI50 [1]: 4.17 µM
TGI [1]: 10 µM
GI50 [2]: 4.27 µM
TGI [2]: 39.8 µM
GI50 [3]: 11.5 µM
TGI [3]: 66.1 µM
GI50 [4]: 18.2 µM
TGI [4]: 53.7 µM
GI50 [5]: 19.1 µM
TGI [5]: 69.2 µM
GI50 [6]: 7.59 µM
TGI [6]: 32.4 µM
GI50 [7]: 4.37 µM
TGI [7]: 34.7 µM
GI50 [8]: 57.5 µM
TGI [8]: > 100 µM
GI50 [9]: 10.7 µM
TGI [9]: 34.7 µM
GI50 [10]: 43.7 µM
TGI [10]: > 100 µM
GI50 [11]: 10.5 µM
TGI [11]: 24 µM
GI50 [12]: 17.8 µM
TGI [12]: 61.7 µM
GI50 [13]: 17.8 µM
TGI [13]: 75.9 µM
GI50 [14]: 31.6 µM
TGI [14]: > 100 µM
GI50 [15]: > 100 µM
TGI [15]: > 100 µM
GI50 [16]: 12 µM
TGI [16]: 41.7 µM
GI50 [17]: 18.2 µM
TGI [17]: 46.8 µM
GI50 [18]: 57.5 µM
TGI [18]: > 100 µM
GI50 [19]: > 100 µM
TGI [19]: > 100 µM
GI50 [20]: 21.4 µM
TGI [20]: > 100 µM
GI50 [21]: 11.2 µM
TGI [21]: 26.3 µM
GI50 [22]: 10.2 µM
TGI [22]: 23.4 µM
GI50 [23]: 26.3 µM
TGI [23]: 95.5 µM
GI50 [24]: 60.3 µM
TGI [24]: 100 µM
GI50 [25]: 1.51 µM
TGI [25]: 7.76 µM
GI50 [26]: 9.12 µM
TGI [26]: 23.4 µM
GI50 [27]: 10.7 µM
TGI [27]: 39.8 µM
GI50 [28]: 24 µM
TGI [28]: 49 µM
GI50 [29]: 52.5 µM
TGI [29]: > 100 µM
GI50 [30]: 26.3 µM
TGI [30]: 89.1 µM
GI50 [31]: 14.8 µM
TGI [31]: 51.3 µM
TGI [32]: 40.7 µM
GI50 [33]: 15.5 µM
TGI [33]: 43.7 µM
GI50 [34]: 26.3 µM
TGI [34]: > 100 µM
GI50 [35]: 63.1 µM
TGI [35]: > 100 µM
GI50 [36]: 10.5 µM
TGI [36]: 43.7 µM
GI50 [37]: 23.4 µM
TGI [37]: 93.3 µM
GI50 [38]: 6.31 µM
TGI [38]: 24.5 µM
GI50 [39]: 13.5 µM
TGI [39]: 56.2 µM
